Row | melting point [°C] | Compound
1 | 212 to 214 | COc1cc2c(cc1OC)C(CC#N)Cc1c-2cnc2cc3c(cc12)OCO3 (centres unmarked) [Compound 209]
2 | 231 to 233 | COc1cc2c(cc1OC)C(CO)Cc1c-2cnc2cc3c(cc12)OCO3 (centres unmarked) [Compound 208]
